ChEMBL document CHEMBL1221397, “Bioassay-guided isolation of the antidiabetic principle from Sorbus decora (Rosaceae) used traditionally by the Eeyou Istchee Cree First Nations” (J Nat Prod, 2010)
pEC50: −log10 of the molar value.

System: C2C12
Test: Induction of [3H]2-deoxy-D-glucose uptake in mouse C2C12 cells after 18 hrs by scintillation counting
Assay type: functional, cell-based

## C=C(C)[C@@H]1CC[C@]2(CO)CC[C@]3(C)[C@H](CC[C@@H]4[C@@]5(C)CC[C@H](OC(=O)/C=C/c6ccc(O)c(O)c6)[C@@](C)(CO)[C@@H]5CC[C@]43C)[C@@H]12
  pEC50: 5.83
